Target: T1, c-Met kinase (recombinant c-Met) (Homo sapiens, UniProt P08581)
T1 construct: 0.27 nM recombinant c-Met
Assay: In vitro kinase assay I (homogeneous time-resolved fluorescence tyrosine kinase assay)
Type: biochemical
In short: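 Biotinylated peptide (0.5 μM) phosphorylated by 0.2 nM recombinant c-Met with 50 μM MgATP, 60 min at room temperature, pH 7.4, 5% DMSO. EDTA stop; HTRF read with Eu-anti-phosphotyrosine antibody and streptavidin-APC. IC50 from 4-parameter logistic fit.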

T1 sequence (P08581 25-1390): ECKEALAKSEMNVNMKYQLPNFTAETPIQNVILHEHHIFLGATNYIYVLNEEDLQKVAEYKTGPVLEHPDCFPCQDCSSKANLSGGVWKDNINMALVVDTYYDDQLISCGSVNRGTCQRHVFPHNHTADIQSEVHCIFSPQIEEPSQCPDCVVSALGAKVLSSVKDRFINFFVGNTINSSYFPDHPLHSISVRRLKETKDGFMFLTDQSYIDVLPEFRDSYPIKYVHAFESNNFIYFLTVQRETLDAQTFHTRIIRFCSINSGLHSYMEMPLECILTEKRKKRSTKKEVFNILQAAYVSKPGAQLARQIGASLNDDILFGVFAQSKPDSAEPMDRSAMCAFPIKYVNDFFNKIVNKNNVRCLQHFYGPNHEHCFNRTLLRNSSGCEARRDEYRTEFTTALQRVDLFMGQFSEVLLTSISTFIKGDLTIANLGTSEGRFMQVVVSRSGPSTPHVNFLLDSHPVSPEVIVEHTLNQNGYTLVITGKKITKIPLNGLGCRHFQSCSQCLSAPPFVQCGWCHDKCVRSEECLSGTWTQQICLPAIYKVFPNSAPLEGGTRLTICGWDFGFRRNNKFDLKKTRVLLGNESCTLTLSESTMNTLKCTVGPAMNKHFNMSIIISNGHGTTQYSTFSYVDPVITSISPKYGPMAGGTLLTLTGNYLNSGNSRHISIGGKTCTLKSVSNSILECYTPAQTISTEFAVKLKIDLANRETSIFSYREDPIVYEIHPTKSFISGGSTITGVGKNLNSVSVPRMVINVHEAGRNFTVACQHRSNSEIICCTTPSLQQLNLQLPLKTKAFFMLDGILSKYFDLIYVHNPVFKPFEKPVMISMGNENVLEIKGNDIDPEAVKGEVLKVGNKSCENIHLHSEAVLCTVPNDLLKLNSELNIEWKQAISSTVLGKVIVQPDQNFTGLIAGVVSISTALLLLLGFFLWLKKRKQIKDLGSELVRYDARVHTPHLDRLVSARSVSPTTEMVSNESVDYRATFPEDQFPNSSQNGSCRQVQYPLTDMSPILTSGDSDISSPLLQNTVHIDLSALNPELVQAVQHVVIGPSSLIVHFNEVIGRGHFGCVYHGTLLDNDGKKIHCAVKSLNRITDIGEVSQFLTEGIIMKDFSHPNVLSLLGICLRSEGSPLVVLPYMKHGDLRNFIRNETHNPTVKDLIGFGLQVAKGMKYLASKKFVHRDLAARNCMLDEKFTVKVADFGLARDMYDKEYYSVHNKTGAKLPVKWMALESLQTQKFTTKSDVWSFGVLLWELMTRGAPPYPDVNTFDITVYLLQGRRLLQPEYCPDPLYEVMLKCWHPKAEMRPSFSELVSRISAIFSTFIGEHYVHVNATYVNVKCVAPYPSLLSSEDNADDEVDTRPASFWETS

SMILES	IC50
O=C(Nc1cccc(Cc2nn(-c3cc(F)c(F)c(F)c3)ccc2=O)c1)OCC1CCCCC1 [Example 557, cyclohexylmethyl (3-{[4-oxo-1-(3,4,5-trifluorophenyl)-1,4-dihydropyridazin-3-yl]methyl}phenyl)carbamate]	< 100 nM
CC(C)Cc1cnc(-c2cccc(Cc3nn(-c4cnn(C)c4)ccc3=O)c2)nc1 [Example 394, 3-{3-[5-(2-methylpropyl)pyrimidin-2-yl)benzyl}-1-(1-methyl-1H-pyrazol-4-yl)pyridazin-4(1H)-one]	< 100 nM
CCCCc1nc(-c2cccc(Cc3nn(-c4cnn(C)c4)ccc3=O)c2)ncc1OCC [Example 176, 3-[3-(4-butyl-5-ethoxypyrimidin-2-yl)benzyl]-1-(1-methyl-1H-pyrazol-4-yl)pyridazin-4(1H)-one]	< 100 nM
CC(c1cccc(-c2ncc(-n3cnnc3)cn2)c1)c1nn(-c2cnn(C)c2)ccc1=O (single isomer, unassigned) [Example 240, 1-(1-methyl-1H-pyrazol-4-yl)-3-[(1R or S)-1-{3-[5-(4H-1,2,4-triazol-4-yl)pyrimidin-2-yl]phenyl}ethyl]pyridazin-4(1H)-one]	100 to 1000 nM
COc1cnc(-c2cccc(Cc3nn(-c4cncc(C)c4)ccc3=O)c2)nc1 [Example 37, 3-[3-(5-methoxypyrimidin-2-yl)benzyl]-1-(5-methylpyridin-3-yl)pyridazin-4(1H)-one]	< 100 nM
O=c1ccn(-c2ccc(F)c(F)c2)nc1Cc1cccc(-c2ncc(OC3COC3)cn2)c1 [Example 326, 1-(3,4-difluorophenyl)-3-{3-[5-(oxetan-3-yloxy)pyrimidin-2-yl]benzyl}pyridazin-4(1H)-one]	< 100 nM
CCc1cnc(-c2cccc(Cc3nn(-c4ccc(F)c(F)c4)ccc3=O)c2)nc1 [Example 407, 1-(3,4-difluorophenyl)-3-[3-(5-ethylpyrimidin-2-yl)benzyl]pyridazin-4(1H)-one]	< 100 nM
Cn1cc(-n2ccc(=O)c(Cc3cccc(-c4ncc(O[C@H]5CC[C@](C)(O)CC5)cn4)c3)n2)cn1 [Example 122, 3-(3-{5-[(trans-4-hydroxy-4-methylcyclohexyl)oxy]pyrimidin-2-yl}benzyl)-1-(1-methyl-1H-pyrazol-4-yl)pyridazin-4(1H)-one]	< 100 nM
COC(=O)Nc1cccc(Cc2nn(-c3cnn(C)c3)ccc2=O)c1 [Example 497, Methyl(3-{[1-(1-methyl-1H-pyrazol-4-yl)-4-oxo-1,4-dihydropyridazin-3-yl]methyl}phenyl)carbamate]	< 100 nM
CC(c1cccc(-c2ncc(OC3CCOCC3)cn2)c1)c1nn(-c2cnn(C)c2)ccc1=O (single isomer, unassigned) [Example 211, 1-(1-methyl-1H-pyrazol-4-yl)-3-[(1S or R)-1-{3-[5-(tetrahydro-2H-pyran-4-yloxy)pyrimidin-2-yl]phenyl}ethyl]pyridazin-4(1H)-one]	< 100 nM
CCCOC(=O)Nc1cccc(Cc2nn(-c3cc(F)c(F)c(F)c3)ccc2=O)c1 [Example 8, propyl (3-{[4-oxo-1-(3,4,5-trifluorophenyl)-1,4-dihydropyridazin-3-yl]methyl}phenyl)carbamate]	< 100 nM
CCn1cc(-n2ccc(=O)c(C(C)c3cccc(-c4ncc(COC)cn4)c3)n2)cn1 (single isomer, unassigned) [Example 218, 1-(1-ethyl-1H-pyrazol-4-yl)-3-((1R or S)-1-{3-[5-(methoxymethyl)pyrimidin-2-yl]phenyl}ethyl)pyridazin-4(1H)-one]	< 100 nM
Cn1cc(-n2ccc(=O)c(Cc3cccc(-c4ncc(C(=O)NCCCN5CCOCC5)cn4)c3)n2)cn1 [Example 482, 2-(3-{[1-(1-methyl-1H-pyrazol-4-yl)-4-oxo-1,4-dihydro-pyridazin-3-yl]methyl}phenyl)-N-(3-morpholin-4-ylpropyl)pyrimidine-5-carboxamide]	< 100 nM
CCC(COC(=O)Nc1cccc(Cc2nn(-c3cc(F)cc(F)c3)ccc2=O)c1)OC (racemic) [Example 591, rac-2-methoxybutyl (3-{[1-(3,5-difluorophenyl)-4-oxo-1,4-dihydropyridazin-3-yl]methyl}phenyl)carbamate]	< 100 nM
O=C(Nc1cccc(Cc2nn(-c3ccc(F)c(F)c3)ccc2=O)c1)OCCN1CCS(=O)(=O)CC1 [Example 528, 2-(1,1-dioxidothio-morpholin-4-yl)ethyl-(3-{[1-(3,4-difluorophenyl)-4-oxo-1,4-dihydropyridazin-3-yl]methyl}phenyl)carbamate]	< 100 nM
CCC(COC(=O)Nc1cccc(Cc2nn(-c3cccc(C#N)c3)ccc2=O)c1)OC (racemic) [Example 581, rac-2-methoxybutyl (3-{[1-(3-cyanophenyl)-4-oxo-1,4-dihydropyridazin-3-yl]methyl}phenyl)carbamate]	< 100 nM
CCOc1cnc(-c2cccc(Cc3nn(-c4ccc(C(=O)NC)c(F)c4)ccc3=O)c2)nc1 [Example 723]	< 100 nM
Cn1cc(-n2ccc(=O)c(Cc3cccc(-c4ncc(OCC(=O)N5CCOCC5)cn4)c3)n2)cn1 [Example 280, 1-(1-methyl-1H-pyrazol-4-yl)-3-{3-[5-(2-morpholin-4-yl-2-oxoethoxy)pyrimidin-2-yl]benzyl}pyridazin-4(1H)-one]	< 100 nM
CCn1cc(-n2ccc(=O)c(C(C)c3cccc(-c4ncc(OC5COC5)cn4)c3)n2)cn1 (single isomer, unassigned) [Example 213, 1-(1-ethyl-1H-pyrazol-4-yl)-3-((1S or R)-1-{3-[5-(oxetan-3-yloxy)pyrimidin-2-yl]phenyl}ethyl)pyridazin-4(1H)-one]	100 to 1000 nM
COCCOCCOC(=O)Nc1cccc(Cc2nn(-c3cc(F)cc(F)c3)ccc2=O)c1 [Example 608, 2-(2-methoxyethoxy)ethyl (3-{[1-(3,5-difluorophenyl)-4-oxo-1,4-dihydropyridazin-3-yl]methyl}phenyl)carbamate]	< 100 nM
CC(C)COC(=O)Nc1cccc(Cc2nn(-c3cnn(CC(C)C)c3)ccc2=O)c1 [Example 94, 2-methylpropyl [3-({1-[1-(2-methylpropyl)-1H-pyrazol-4-yl]-4-oxo-1,4-dihydropyridazin-3-yl}methyl)phenyl]carbamate]	100 to 1000 nM
CCOc1cnc(-c2cccc(C(OC)c3nn(-c4cnn(C)c4)ccc3=O)c2)nc1 (racemic) [Example 659, rac-3-[[3-(5-Ethoxypyrimidin-2-yl)phenyl](methoxy)methyl]-1-(1-methyl-1H-pyrazol-4-yl)pyridazin-4(1H)-one]	100 to 1000 nM
Cc1cnccc1-c1cnc(-c2cccc(Cc3nn(-c4cnn(C)c4)ccc3=O)c2)nc1 [Example 416, 1-(1-methyl-1H-pyrazol-4-yl)-3-{3-[5-(3-methylpyridin-4-yl)pyrimidin-2-yl]benzyl}pyridazin-4(1H)-one]	< 100 nM

Now from value to molecule:

IC50	SMILES
< 100 nM	CN(C)C(=O)COc1cnc(-c2cccc(Cc3nn(-c4cnn(C)c4)ccc3=O)c2)nc1 [Example 279, N,N-dimethyl-2-{[2-(3-{[1-(1-methyl-1H-pyrazol-4-yl)-4-oxo-1,4-dihydropyridazin-3-yl]methyl}phenyl)pyrimidin-5-yl]oxy}acetamide]
< 100 nM	CC(C)COC(=O)Nc1cccc(Cc2nn(-c3cnn(CCC(=O)NC4COC4)c3)ccc2=O)c1 [Example 704, 2-methylpropyl {3-[(1-{1-[3-(oxetan-3-ylamino)-3-oxopropyl]-1H-pyrazol-4-yl}-4-oxo-1,4-dihydropyridazin-3-yl)methyl]phenyl} carbamate]
< 100 nM	CCn1cnc(-c2cccc(Cc3nn(-c4cc(F)cc(C#N)c4)ccc3=O)c2)n1 [Example 83, 3-{3-[3-(1-ethyl-1H-1,2,4-triazol-3-yl)benzyl]-4-oxopyridazin-1(4H)-yl}-5-fluorobenzonitrile]
< 100 nM	Cn1cc(-n2ccc(=O)c(Cc3cccc(-c4ncc(-c5cn[nH]c5)cn4)c3)n2)cn1 [Example 410, 1-(1-methyl-1H-pyrazol-4-yl)-3-{3-[5-(1H-pyrazol-4-yl)pyrimidin-2-yl]benzyl}pyridazin-4(1H)-one]
< 100 nM	CCn1cc(-n2ccc(=O)c(C(C)c3cccc(-c4ncc(OCC5CCNCC5)cn4)c3)n2)cn1 (single isomer, unassigned) [Example 339, 1-(1-ethyl-1H-pyrazol-4-yl)-3-((1R or S)-1-{3-[5-(piperidin-4-ylmethoxy)pyrimidin-2-yl]phenyl}ethyl)pyridazin-4(1H)-one]
100 to 1000 nM	CCOc1cnc(-c2cccc(C(CCC#N)c3nn(-c4cn[nH]c4)ccc3=O)c2)nc1 (racemic) [Example 665, rac-4-[3-(5-Ethoxypyrimidin-2-yl)phenyl]-4-[4-oxo-1-(1H-pyrazol-4-yl)-1,4-dihydropyridazin-3-yl]butanenitrile]
< 100 nM	O=C(Nc1cccc(Cc2nn(-c3cc(F)cc(F)c3)ccc2=O)c1)OCCCN1CCOCC1 [Example 521, 3-morpholin-4-ylpropyl (3-{[1-(3,5-difluorophenyl)-4-oxo-1,4-dihydropyridazin-3-yl]methyl}phenyl)carbamate]
< 100 nM	N#Cc1cccc(-n2ccc(=O)c(Cc3cccc(NC(=O)OCCN4CCOCC4)c3)n2)c1 [Example 597, 2-morpholin-4-ylethyl (3-{[1-(3-cyanophenyl)-4-oxo-1,4-dihydropyridazin-3-yl]methyl}phenyl)carbamate]
< 100 nM	CC(C)COC(=O)Nc1cccc(Cc2nn(-c3cc(F)cc(F)c3)ccc2=O)c1 [Example 17, 2-methylpropyl (3-{[1-(3,5-difluorophenyl)-4-oxo-1,4-dihydropyridazin-3-yl]methyl}phenyl)carbamate]
100 to 1000 nM	Cn1cc(-n2ccc(=O)c(Cc3cccc(NC(=O)NC4CC4)c3)n2)cn1 [Example 492, 1-cyclopropyl-3-(3-{[1-(1-methyl-1H-pyrazol-4-yl)-4-oxo-1,4-dihydropyridazin-3-yl]methyl}phenyl)urea]
1000 to 3000 nM	CCNC(=O)Nc1cccc(Cc2nn(-c3ccccc3)ccc2=O)c1 [Example 486, 1-Ethyl-3-{3-[(4-oxo-1-phenyl-1,4-dihydropyridazin-3-yl)methyl]phenyl}urea]
